Source: US20130184280A1, “SUBSTITUTED THIAZOLES AS VEGFR2 KINASE INHIBITORS” (TELIK, INC., priority 2011, published 2013)

Experiments:
[1] = In Vitro Cytotoxicity Assay HCT116 (CellTiter-Glo); format: cell-based; details: human, HCT116 colon carcinoma cells, cultured three days
Protocol: (§1) The cell lines HL60 (human promyelocytic leukemia) and HCT116 (human colon carcinoma) were obtained from the American Type Culture Collection, Manassas, Va., U.S.A. All products were used in accordance with manufacturer's directions. The cytotoxicity assays were conducted in triplicate, in each case with solvent control.
(§2) Log-phase cells were trypsinized, collected by centrifugation, and resuspended in a small volume of fresh medium, and the density of viable cells was determined following Trypan Blue staining Cells were diluted in fresh media, the test compounds (concentrations between 0.1 μM and 200 μM, dissolved in DMSO, 50 μL) added immediately after dilution to achieve a final DMSO concentration of 0.5%, then the suspensions added at 150 μL/well to 96-well plates, and incubated overnight to allow attachment in the case of adherent cells. The cells were cultured for three days (about three doubling times). The cells were then collected by centrifugation, and 100 μL of the culture supernatant was replaced by the CellTiter-Glo reagent. After incubation for 15 minutes at room temperature, the plate was read with a luminometer. […] The table gives cytotoxicity IC50s in μm.

[2] = In Vitro Cytotoxicity Assay HL60 (CellTiter-Glo); format: cell-based; details: human, HL60 promyelocytic leukemia cells; HL 60 cells, cultured three days
Protocol: as §1, §2

[3] = tested on: HCT116 (human colon carcinoma); experiment: In Vivo HCT116 Xenograft Model; details: athymic nu/nu mice
VEGFR2 kinase = target: T1, VEGFR2 kinase (Homo sapiens, UniProt P35968); experiment: In Vitro VEGFR2 Kinase Assay; format: biochemical; details: FP; CSKtide substrate, 60 minutes at room temperature
T1 construct: purchased InVitrogen
Protocol: In Vitro VEGFR2 Kinase Assay
50 ng/well VEGFR2 kinase (from InVitrogen) was mixed in buffer (14.5 μL/well). To this were added, 0.5 μL of the compound of this invention at a concentration of 2.5% in DMSO. After incubatiuon for 5 minutes at room temperature, 5 μL of substrate (CSKtide, 400 nM) and 8 μL ATP were added. The mixture was incubated for 60 minutes at room temperature and 60 uL of binding reagent (beads) was added. After incubation overnight at room temperature, the plate was read with a LJL plate reader.

[4] = 30 mg/Kg intraperitoneally once/day on days 1-5 and 8-12, measured 2 days after last treatment

T1 sequence (P35968 20-1356): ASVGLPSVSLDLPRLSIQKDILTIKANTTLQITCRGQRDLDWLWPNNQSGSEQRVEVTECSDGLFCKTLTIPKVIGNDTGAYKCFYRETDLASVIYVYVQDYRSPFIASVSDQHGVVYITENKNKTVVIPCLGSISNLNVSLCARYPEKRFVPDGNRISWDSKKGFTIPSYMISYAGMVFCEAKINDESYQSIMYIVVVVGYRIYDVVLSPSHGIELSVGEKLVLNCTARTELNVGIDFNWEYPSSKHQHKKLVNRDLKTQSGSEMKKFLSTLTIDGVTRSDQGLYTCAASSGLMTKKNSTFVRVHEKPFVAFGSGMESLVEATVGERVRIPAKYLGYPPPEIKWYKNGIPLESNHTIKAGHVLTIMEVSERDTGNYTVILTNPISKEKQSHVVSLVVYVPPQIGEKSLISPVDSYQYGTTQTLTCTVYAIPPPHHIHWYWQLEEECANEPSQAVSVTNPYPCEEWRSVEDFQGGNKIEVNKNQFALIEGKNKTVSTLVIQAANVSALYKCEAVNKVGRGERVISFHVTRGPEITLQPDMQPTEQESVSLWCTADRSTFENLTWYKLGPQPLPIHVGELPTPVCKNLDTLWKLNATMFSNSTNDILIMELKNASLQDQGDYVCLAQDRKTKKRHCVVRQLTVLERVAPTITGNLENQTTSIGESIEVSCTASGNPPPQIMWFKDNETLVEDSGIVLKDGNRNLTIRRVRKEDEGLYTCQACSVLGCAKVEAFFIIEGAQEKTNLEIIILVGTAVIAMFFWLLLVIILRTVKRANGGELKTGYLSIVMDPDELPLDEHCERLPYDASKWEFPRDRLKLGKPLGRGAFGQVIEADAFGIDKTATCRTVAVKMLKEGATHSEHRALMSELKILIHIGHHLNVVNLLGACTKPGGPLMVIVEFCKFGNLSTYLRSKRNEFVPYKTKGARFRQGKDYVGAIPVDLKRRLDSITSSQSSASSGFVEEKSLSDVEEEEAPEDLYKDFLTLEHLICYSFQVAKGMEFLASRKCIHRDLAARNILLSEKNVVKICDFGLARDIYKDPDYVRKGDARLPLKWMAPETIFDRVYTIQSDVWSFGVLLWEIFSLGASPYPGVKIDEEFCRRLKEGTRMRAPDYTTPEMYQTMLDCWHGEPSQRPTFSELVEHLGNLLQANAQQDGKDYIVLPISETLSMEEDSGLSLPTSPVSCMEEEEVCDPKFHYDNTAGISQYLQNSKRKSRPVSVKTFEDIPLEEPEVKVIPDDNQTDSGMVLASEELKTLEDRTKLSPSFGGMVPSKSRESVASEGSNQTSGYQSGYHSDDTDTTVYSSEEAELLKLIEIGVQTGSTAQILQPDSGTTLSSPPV

| SMILES | IC50 at 3 days [1] [µM] | IC50 at 3 days [2] [µM] | Tumor growth inhibition [3, 4] | IC50 (VEGFR2 kinase) [nM] | Tumor growth inhibition ([3]; administered orally) |
| --- | --- | --- | --- | --- | --- |
| Nc1ncncc1-c1nc(-c2cccc(NC(=O)c3ccccc3)c2)cs1 [Compound 3] | 20 | 3 | showed inhibition of tumor growth compared to vehicle | 20 |  |
| Nc1ncncc1-c1nc(-c2cccc(NC(=O)c3ccc(-c4ccccc4)cc3)c2)cs1 [Compound 15] | 3 | 1 |  | 400 |  |
| Nc1ncncc1-c1nc(-c2cccc(NC(=O)NC3CCCCC3)c2)cs1 [Compound 65] | 8 | 1 |  | 40 |  |
| Nc1ncncc1-c1nc(-c2cccc(NC(=O)Nc3ccc(Cl)c(C(F)(F)F)c3)c2)cs1 [Compound 22] | 1 | 1 |  | 20 |  |
| COc1ccccc1NC(=O)Nc1cccc(-c2csc(-c3cncnc3N)n2)c1 [Compound 26] | 7 | 0.4 |  | 40 |  |
| Nc1ncncc1-c1nc(-c2cccc(NC(=O)NCc3ccccc3)c2)cs1 [Compound 58] | 4 | 0.4 |  | 60 |  |
| Nc1ncncc1-c1nc(-c2cccc(NC(=O)Nc3cccc(CN4CCOCC4)c3)c2)cs1 [Compound 46] | 8 | 0.7 | showed inhibition of tumor growth compared to vehicle | 20 | showed inhibition of tumor growth when administered orally |
| Nc1ncncc1-c1nc(-c2ccc(NC(=O)Nc3cccc(C(F)(F)F)c3)cc2)cs1 [Compound 1] | 4 | 0.9 |  |  |  |
| COc1ccc(NC(=O)Nc2cccc(-c3csc(-c4cncnc4N)n3)c2)cc1 [Compound 14] | 20 | 0.3 |  | 30 |  |
| Cc1cccc(NC(=O)Nc2cccc(-c3csc(-c4cncnc4N)n3)c2)c1 [Compound 17, 1-(3-(2-(4-aminopyrimidin-5-yl)thiazol-4-yl)phenyl)-3-m-tolylurea] | 1 | 0.3 | showed inhibition of tumor growth compared to vehicle | 10 |  |
| Nc1ncncc1-c1nc(-c2cccc(NC(=O)c3ccc(Cl)cc3)c2)cs1 [Compound 8] | 20 | 0.3 |  | 70 |  |
| Nc1ncncc1-c1nc(-c2cccc(NC(=O)c3cccc(Cl)c3)c2)cs1 [Compound 6, N-(3-(2-(4-aminopyrimidin-5-yl)thiazol-4-yl)phenyl)-3-chlorobenzamide] | > 50 | 3 |  | 20 |  |
| Nc1ncncc1-c1nc(-c2cccc(NC(=O)Nc3ccccc3C(F)(F)F)c2)cs1 [Compound 20] | 50 | 0.7 |  | 50 |  |
| Nc1ncncc1-c1nc(-c2cccc(NC(=O)Nc3cccc(C(F)(F)F)c3)c2)cs1 [Compound 39] | 2 | 1 |  | 20 |  |
| CN(C)Cc1cccc(C(=O)Nc2cccc(-c3csc(-c4cncnc4N)n3)c2)c1 [Compound 55] | 2 | 0.4 |  | 400 |  |
| Nc1ncncc1-c1nc(-c2cccc(NC(=O)c3cccc(CN4CCOCC4)c3)c2)cs1 [Compound 52] | 4 | 1 |  | 500 |  |
| Nc1ncncc1-c1nc(-c2cccc(NC(=O)c3ccc(F)c(F)c3)c2)cs1 [Compound 9] | 50 | 20 |  | 300 |  |
| CCc1ccc(NC(=O)Nc2cccc(-c3csc(-c4cncnc4N)n3)c2)cc1 [Compound 28] | 8 | 1 |  | 70 |  |
| Nc1ncncc1-c1nc(-c2cccc(NC(=O)c3ccc([N+](=O)[O-])cc3)c2)cs1 [Compound 13] | > 50 | > 50 |  | 200 |  |
| Nc1ncncc1-c1nc(-c2cccc(NC(=O)Nc3ccccc3)c2)cs1 [Compound 4] | 6 | 0.2 |  | 10 |  |
| Nc1ncncc1-c1nc(-c2cccc(NC(=O)Nc3ccc4c(c3)OCO4)c2)cs1 [Compound 72] | 2 | 0.3 |  | 60 |  |
| Nc1ncncc1-c1nc(-c2cccc(NC(=O)c3ccccn3)c2)cs1 [Compound 21] | > 50 | 4 |  | 200 |  |
| Nc1ncncc1-c1nc(-c2cccc(NC(=O)Nc3ccccc3Cl)c2)cs1 [Compound 18] | 30 | 0.5 |  | 30 |  |
| Cc1ccccc1NC(=O)Nc1cccc(-c2csc(-c3cncnc3N)n2)c1 [Compound 19] | > 50 | 0.9 |  | 70 |  |
| Cc1ccc(NC(=O)Nc2cccc(-c3csc(-c4cncnc4N)n3)c2)cc1C [Compound 27] | 2 | 4 |  | 40 |  |
| Nc1ncncc1-c1nc(-c2cccc(NC(=O)Nc3cccc(F)c3)c2)cs1 [Compound 12] | 40 | 0.1 |  | 100 |  |
| Nc1ncncc1-c1nc(-c2cccc(NC(=O)Nc3ccc(F)c(C(F)(F)F)c3)c2)cs1 [Compound 10] | 2 | 0.5 |  | 20 |  |
| Nc1ncncc1-c1nc(-c2cccc(NC(=O)Nc3ccc(Cl)cc3)c2)cs1 [Compound 16] | 10 | 1 |  | 4 |  |
| Nc1ncncc1-c1nc(-c2cccc(NC(=O)c3cccc(CNCCO)c3)c2)cs1 [Compound 56] | 3 | 2 |  | 100 |  |
